Molecules are shown by their SMILES.

One test concerns G. duodenalis BRIS/91/HEPU/1279. Kind of test: Primary Giardia screen at 10 µM (live-cell imaging, automated counting). The settings on record: 24 h. The test is classed as cell-based, Giardia duodenalis. The method in brief: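 Percent growth versus 0.2% DMSO vehicle, background-corrected with media-only wells, is reported at 24 and 48 h from automated live-cell counts. Testing used 10 μM final in a 3% O2 atmosphere, with plate quality checked by Z' factor.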
On to `Fc1cccc(Nc2c3c(nc4ccccc24)CCC3)c1` [SN00784170], for which the “Average % Inhibition 24h” value amounted to 2.3%.

The test is the same for the next values; noted with them: 24 h, first singlicate assay.
Turning to `Fc1cccc(Nc2c3c(nc4ccccc24)CCC3)c1` [SN00784170], the “% Inhibition n=1 24h” value was 4.6%.

The test is the same for the next values; noted with them: 24 h, re-assessment.
On to `Fc1cccc(Nc2c3c(nc4ccccc24)CCC3)c1` [SN00784170], for which the “% Inhibition n=2 24h” value is 0.0%.

The same test, now with this note: 48 h.
For the molecule `Fc1cccc(Nc2c3c(nc4ccccc24)CCC3)c1` [SN00784170], the “Average % Inhibition 48h” value came out at 55.5%.

Still in this test, the particulars now being: 48 h, first singlicate assay.
On to `O=C(O)c1cccc(Nc2nc(Nc3ccccc3)nc(N3CCCC3)n2)c1` [SN00783666], for which the “% Inhibition n=1 48h” value was found to be 0.3%.
The same measure, in the same setting: the result for `Cc1cc(Cl)ccc1OCCCC(=O)Nc1nc2ccccc2[nH]1` [SN00783684] reads 27.8%.
Take `Cc1ccc(-c2cc(C(=O)N3CC(C)CC(C)C3)c3ccccc3n2)o1` (stereo not shown) [SN00783691]: the “% Inhibition n=1 48h” value was found to be 7.2%.
Still for that read-out and setting: the result for `Cc1c(CN(C)C(=O)c2cc3nc(-c4cccs4)cc(C(F)(F)F)n3n2)cnn1C` [SN00783696] reads 0.0%; that for `Cc1ccc(-c2cc(C(=O)NCc3cn(C)nc3C)c3ccccc3n2)cc1C` [SN00783737], 0.0%; that for `CCCNC(=O)c1cnn2c(C(F)F)cc(-c3ccc(C)cc3)nc12` [SN00783826], 40.8%.
On to `Cc1ccc(-c2cc(C(F)F)n3ncc(C(=O)NCc4cnn(C)c4C)c3n2)cc1` [SN00783829], for which the “% Inhibition n=1 48h” value amounted to 0.0%.
For the molecule `CCn1cc(CN(C)C(=O)c2cnn3c(C(F)F)cc(-c4ccc(OC)cc4)nc23)c(C)n1` [SN00783837], the “% Inhibition n=1 48h” value was found to be 29.0%.
On the same count and under the same terms, the result for `Cc1coc(C)c1C(=O)CC1(O)C(=O)Nc2ccccc21` (stereo not shown) [SN00783840] reads 0.0%; that for `CCOC(=O)c1c(NC(=O)CN2C(=O)COc3ccc(Cl)cc32)sc2c1CCCC2` [SN00783847], 26.0%; that for `CCCN(c1ccccc1C(=O)O)S(=O)(=O)c1ccc2[nH]c(=O)[nH]c2c1` [SN00783856], 12.1%.
In the case of `COc1ccc(OCCn2c(NC(=O)c3ccc(OC)cc3)nc3ccccc32)cc1` [SN00783884], the “% Inhibition n=1 48h” value came to 19.5%.
As for `O=C(Cn1cnc([N+](=O)[O-])n1)NCCc1ccccc1` [SN00783937], the “% Inhibition n=1 48h” value was found to be 33.8%.
On to `COc1ccc(C2NC(C(=O)O)Cc3c2[nH]c2ccccc32)c(OC)c1` (stereo not shown) [SN00783957], for which the “% Inhibition n=1 48h” value worked out at 5.0%.
In the case of `CCOc1cc2c(cc1OCC)-n1cccc1C(c1cccc([N+](=O)[O-])c1)NC2` (stereo not shown) [SN00783996], the “% Inhibition n=1 48h” value is recorded as 10.3%.
Turning to `COc1cc(CNCCNC(=O)c2nonc2N)ccc1OCc1ccc(F)cc1` [SN00784068], the “% Inhibition n=1 48h” value is on record as 0.0%.
On to `COC(=O)C1=C(C)N(C(C)C)C(=O)C1(NC(=O)C1CCCCC1)C(F)(F)F` (stereo not shown) [SN00784094], for which the “% Inhibition n=1 48h” value came out at 0.0%.
Consider `COc1cccc(C(=O)NC2(C(F)(F)F)C(=O)N(Cc3ccccc3)C(C)=C2C(C)=O)c1` (stereo not shown) [SN00784101], for which the “% Inhibition n=1 48h” value turned out to be 2.9%.
Take `CN(CCc1ccccn1)C(=O)c1cc2nc(-c3ccc(Cl)cc3)cc(C(F)(F)F)n2n1` [SN00784121]: the “% Inhibition n=1 48h” value was determined as 0.0%.
For the molecule `O=C(Nc1cccc(C(F)(F)F)c1)c1cnn2c(C(F)(F)F)cc(-c3ccco3)nc12` [SN00784128], the “% Inhibition n=1 48h” value came out at 9.2%.
On the same count and under the same terms, then `Fc1cccc(Nc2c3c(nc4ccccc24)CCC3)c1` [SN00784170], with 66.2%; and `CCCCN(CCCNC(=O)c1c(C)oc2nc[nH]c(=O)c12)Cc1ccccc1` [SN00784186], with 16.8%.
As to `CN1C(=O)c2cc(NC(=O)c3ccc4c(c3)OCO4)ccc2N2CCN=C12` [SN00784190], the “% Inhibition n=1 48h” value was found to be 31.6%.
In the case of `Fc1ccc(-c2cc(C(F)(F)F)nc(NCc3ccco3)n2)cc1` [SN00784252], the “% Inhibition n=1 48h” value is recorded as 2.3%.
Regarding `CCOC(=O)N1CCN(c2nc(-c3cccs3)cc(C(F)(F)F)n2)CC1` [SN00784268], the “% Inhibition n=1 48h” value was 21.6%.
Regarding `CC(C)CCNC(=O)C1CCCCN1S(=O)(=O)c1ccc(F)cc1` (stereo not shown) [SN00784282], the “% Inhibition n=1 48h” value was found to be 5.5%.
In the case of `O=C(NCCCN1CCCCC1)c1cc(-c2cccs2)nc2ccccc12` [SN00784290], the “% Inhibition n=1 48h” value came out at 13.3%.
With `O=c1c2cccnc2n(Cc2cc(=O)n3ccccc3n2)c(=O)n1CCc1ccccc1` [SN00784337], the “% Inhibition n=1 48h” value is 7.3%.
For `CCOc1ccc(NS(=O)(=O)c2cc(C(=O)Nc3cc(C)ccc3C)[nH]n2)cc1` [SN00784397], the “% Inhibition n=1 48h” value is 15.3%.
As for `Cc1ccc2c(=O)c(C(=O)N3CCSCC3)c[nH]c2n1` [SN00784417], the “% Inhibition n=1 48h” value amounted to 11.0%.
As to `CCCNC(=O)c1cc(-c2ccc(F)cc2)on1` [SN00784460], the “% Inhibition n=1 48h” value is listed as 0.0%.
Take `COc1ccc(CCNC(=O)c2cc(-c3cccs3)on2)cc1OC` [SN00784489]: the “% Inhibition n=1 48h” value stood at 33.2%.
Still for that read-out and setting: the result for `O=C(Nc1cccc(O)c1)c1cc(-c2cccnc2)on1` [SN00784502] reads 24.5%; that for `O=C(NCc1ccc(Cl)cc1)c1noc2c1CCCC2` [SN00784503], 0.0%.
Regarding `O=C1C2C(c3ccc(F)cc3)NC(Cc3ccccc3)(C(=O)O)C2C(=O)N1c1ccc(F)cc1` (stereo not shown) [SN00784528], the “% Inhibition n=1 48h” value is given as 0.7%.
For `COc1ccc(-c2nc3sccn3c2Nc2ccc3c(c2)OCO3)cc1` [SN00784546], the “% Inhibition n=1 48h” value amounted to 0.0%.
As to `CC(C)CCNC(=O)C1(C)CCC(=O)N1CCCN1CCN(c2cccc(Cl)c2)CC1` (stereo not shown) [SN00784585], the “% Inhibition n=1 48h” value is 25.4%.
Still for that read-out and setting: the result for `Cc1ccc(CNC(=O)C2(S(=O)(=O)c3ccc(Cl)cc3)CC2)cc1` [SN00784605] reads 11.5%; that for `O=C(N1CCN(c2cccc(Cl)c2)CC1)C1(S(=O)(=O)c2ccc(Cl)cc2)CC1` [SN00784607], 0.0%; that for `CCOc1ccc(-n2c(=O)c3c4c(sc3n(Cc3cccnc3)c2=O)CCC4)cc1` [SN00784617], 0.0%.
In the case of `COc1ccc(N2C(=O)NC3CC2(C)Oc2ccc(OC)cc23)cc1` (stereo not shown) [SN00784647], the “% Inhibition n=1 48h” value was determined as 11.2%.
For the molecule `COc1cc(C(=O)N2C(=O)N(c3ccc(F)cc3)C3(C)CC2c2ccccc2O3)cc(OC)c1OC` (stereo not shown) [SN00784661], the “% Inhibition n=1 48h” value came to 3.1%.
As for `CC12CC(c3ccccc3O1)N(C(=O)c1cccc(F)c1)C(=O)N2c1ccccc1` (stereo not shown) [SN00784677], the “% Inhibition n=1 48h” value is listed as 0.0%.
For the molecule `Clc1ccc(Nc2nc3ccccc3n3nnnc23)cc1` [SN00784679], the “% Inhibition n=1 48h” value stood at 4.0%.
The same measure, in the same setting: then `Cc1cccc(NC(=O)CN2CC(c3ccccc3)CC2=O)c1` (stereo not shown) [SN00784702], with 10.4%.
For the molecule `Cc1ccc(NC(=O)CN2CC(c3ccccc3)CC2=O)c(C)c1` (stereo not shown) [SN00784704], the “% Inhibition n=1 48h” value is 6.2%.
Turning to `O=C(NCCc1ccccc1)c1ccc(Nc2nc3ccccc3n3nnnc23)cc1` [SN00784739], the “% Inhibition n=1 48h” value stood at 8.5%.
On the same count and under the same terms, then `Cc1ccc(S(=O)(=O)Nc2cc3c(cc2NCc2ccccc2)n(C)c(=O)n3C)cc1` [SN00784759], with 14.3%; and `COc1ccc(S(=O)(=O)Nc2cc3c(cc2NCc2ccccc2)n(C)c(=O)n3C)cc1OC` [SN00784765], with 14.1%; and `O=C(Nc1ccccc1)NC(c1ccccc1)c1nnc(-c2ccccc2Cl)o1` (stereo not shown) [SN00784775], with 0.0%.
With `O=C(CN1CCN(Cc2ccccc2)C1=O)NCc1ccc(Cl)cc1` [SN00784814], the “% Inhibition n=1 48h” value is recorded as 0.0%.
`CC(=O)c1cccc(NS(=O)(=O)c2c(C)n[nH]c2C)c1` [SN00784818]: the “% Inhibition n=1 48h” value is on record as 5.0%.
Turning to `Cc1ccc(NS(=O)(=O)c2c(C)n[nH]c2C)cc1` [SN00784820], the “% Inhibition n=1 48h” value is reported as 8.8%.
Same read-out and setting: then `Cc1cc(NC(=O)C2CCN(S(=O)(=O)c3c(C)n[nH]c3C)CC2)ccc1Br` [SN00784824], with 11.8%; and `CSCCC1COC(c2cccn2C)=N1` (stereo not shown) [SN00784837], with 0.0%; and `COc1ccc(Cn2cccc2C2=NC(C)(C)CO2)cc1` [SN00784853], with 19.2%.
Take `CSc1cccc(NC(=O)CN2C(=O)C(C)N=C(c3ccccc3)c3ccccc32)c1` (stereo not shown) [SN00784896]: the “% Inhibition n=1 48h” value came out at 0.0%.
With `CCN1CCN(C(=O)c2ccc(N3CCCC3=O)cc2)CC1` [SN00784919], the “% Inhibition n=1 48h” value is listed as 8.8%.
As for `CCCCNC(=O)c1cccc(N2CCCC2=O)c1` [SN00784930], the “% Inhibition n=1 48h” value is 4.7%.
With `Cc1nc(N(C)C)ncc1C(=O)O` [SN00784957], the “% Inhibition n=1 48h” value is listed as 3.0%.
On the same count and under the same terms, the result for `CC(=O)c1cccc(NC(=O)C2CCCN(S(=O)(=O)c3c(C)noc3C)C2)c1` (stereo not shown) [SN00784980] reads 0.0%; that for `CCc1cccc(NC(=O)C2CCCN(S(=O)(=O)c3c(C)noc3C)C2)c1` (stereo not shown) [SN00784983], 0.0%; that for `COc1ccc(-n2nc(C(=O)NCc3ccc(C)cc3)c3c4ccccc4n(C)c3c2=O)cc1` [SN00785076], 5.1%.
The same measure, in the same setting: then `CCCN1C(=O)c2cc(C(=O)Nc3ccc(F)cc3)ccc2C1Nc1ccc(F)cc1` (stereo not shown) [SN00785169], with 13.3%.
With `CCCN1C(=O)c2cc(C(=O)Nc3ccccc3OC)ccc2C1Nc1ccccc1OC` (stereo not shown) [SN00785171], the “% Inhibition n=1 48h” value is given as 21.9%.
Regarding `CC(=O)N1CCc2cc(C(=O)CN3CCN(c4ccc(C(F)(F)F)cc4[N+](=O)[O-])CC3)ccc21` [SN00785201], the “% Inhibition n=1 48h” value was 3.8%.
As to `CC(=O)N1CCc2cc(C(=O)CN3CC(C)CC(C)C3)ccc21` (stereo not shown) [SN00785210], the “% Inhibition n=1 48h” value came to 19.3%.
`CCn1c(C)c(C2=CCN(S(=O)(=O)c3ccc(F)cc3)CC2)c2ccccc21` [SN00785221]: the “% Inhibition n=1 48h” value was 17.2%.
For the molecule `Cc1ccc(-c2[nH]c(-c3ccccc3)nc2S(=O)(=O)CC(=O)Nc2ccccc2)cc1` [SN00785272], the “% Inhibition n=1 48h” value turned out to be 11.7%.
Turning to `COc1ccc(-c2nc(S(=O)(=O)CC(=O)Nc3ccc(F)cc3)c(-c3ccc(OC)cc3)[nH]2)cc1` [SN00785276], the “% Inhibition n=1 48h” value was 12.5%.
On to `CCc1noc2nc(C)nc(N3CCCC(C(=O)O)C3)c12` (stereo not shown) [SN00785300], for which the “% Inhibition n=1 48h” value came to 0.0%.

Still in this test, the particulars now being: 48 h, re-assessment.
For the molecule `Fc1cccc(Nc2c3c(nc4ccccc24)CCC3)c1` [SN00784170], the “% Inhibition n=2 48h” value came to 44.9%.
